Test results published in patent publication US8124610B2, “Sodium channel inhibitors” (Icagen Inc., priority 2007, dated 2012).
pIC50: −log10 of the molar value. Where two headings read alike, the source gives them in different places. Values belong to the molecule of their own block, whether it stands above or below them.

Assays:
[1] = target: T1, hSCN9A (Homo sapiens, UniProt Q15858); assay: Whole-cell patch-clamp electrophysiology (conventional or PatchXpress), HEK cells expressing hSCN9A, estimated IC-50; assay type: cell-based; conditions: read-out: SCN9A EIC-50
T1 construct: expressed in transfected cells
In short: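 Stably transfected HEK cells recorded by whole-cell voltage clamp (manual or PatchXpress) at 22–24 °C in pH 7.4 HEPES-buffered extracellular solution. Cells held at the empirically determined inactivation V1/2 after an 8 s prepulse, then stepped to 0 mV for 20 ms; % inhibition from current amplitude before vs after compound.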

[2] = target: T2, hSCN3A (Homo sapiens, UniProt Q9NY46); assay: Whole-cell patch-clamp electrophysiology (conventional or PatchXpress), HEK cells expressing hSCN3A, estimated IC-50; assay type: cell-based; conditions: read-out: SCN3A EIC-50
T2 construct: expressed in transfected cells
Description: Human Embryonic Kidney (HEK) cells were transfected with hSCN3A or hSCN9A constructs using lipofectamine reagent (Invitrogen), using standard techniques. Cells stably expressing the hSCN3A or hSCN9A constructs were identified by their resistance to G-418 (400 μg/ml). Clones were screened for expression using the whole-cell voltage-clamp technique. HEK cells stably transfected with hSCN3A or hSCN9A were maintained in DMEM medium supplemented with 10% heat-inactivated fetal bovine serum and 400 μg/ml G418 sulfate in an incubator at 37° C. with a humidified atmosphere of 10% CO2. For HTS, cells were harvested from flasks by trypsinization and replated in an appropriate multi-well plate (typically 96 or 384 wells/plate) such that confluence would be achieved within 24 hours of plating. For electrophysiological studies, cells were removed from the culture flask by brief trypsinization and replated at low density onto glass cover slips. Cells were typically used for electrophysiological experiments within 24 to 72 h after plating. Cover slips containing HEK cells expressing hSCN3A or hSCN9A were placed in a bath on the stage of an inverted microscope and perfused (approximately 1 ml/min) with extracellular solution of the following composition: 138 mM NaCl, 2 mM CaCl2, 5.4 mM KCl, 1 mM MgCl2, 10 mM glucose, and 10 mM HEPES, pH 7.4, with NaOH. […] All recordings were made at room temperature (22-24° C.) using AXOPATCH 200B amplifiers and PCLAMP software (Axon Instruments, Burlingame, Calif.) or PatchXpress 7000 hardware and associated software (Axon Instruments, Burlingame, Calif.). hSCN3A or hSCN9A currents in HEK cells were measured using the whole-cell configuration of the patch-clamp technique (Hamill et al., 1981). […] As a result, voltage errors were negligible and no correction was applied. Current records were acquired at 20 to 50 KHz and filtered at 5 to 10 KHz. HEK cells stably transfected with hSCN3A or hSCN9A were viewed under Hoffman contrast optics and placed in front of an array of flow pipes emitting either control or compound-containing extracellular solutions. All compounds were dissolved in dimethyl sulfoxide to make 10 mM stock solutions, which were then diluted into extracellular solution to attain the final concentrations desired. […] The voltage-dependence of inactivation was determined by applying a series of depolarizing prepulses (8 sec long in 10 mV increments) from a negative holding potential. The voltage was then immediately stepped to 0 mV to assess the magnitude of the sodium current. Currents elicited at 0 mV were plotted as a function of prepulse potential to allow estimation of the voltage midpoint of inactivation (V1/2). Cells were then voltage clamped at the empirically determined V1/2. Compounds were tested for their ability to inhibit hSCN3A or hSCN9A sodium channels by activating the channel with a 20 msec voltage step to 0 mV following an 8 second conditioning prepulse to the empirically determined V1-2 (Table B). Compound effect (% inhibition) was determined by difference in current amplitude before and after application of test compounds. […] In some cases electrophysiological assays were conducted with PatchXpress 7000 hardware and associated software (Molecular Devices Corp) (Table B). All assay buffers and solutions were identical to those used in conventional whole-cell voltage clamp experiments described above. hSCN3A or hSCN9A containing cells were grown as above to 50%-80% confluency and harvested by trypsinization. Trypsinized cells were washed and resuspended in extracellular buffer at a concentration of 1×10^6 cells/ml. The onboard liquid handling facility of the PatchXpress was used for dispensing cells and application of test compounds. Determination of the voltage midpoint of inactivation was as described for conventional whole-cell recordings. Cells were then voltage-clamped to the empirically determined V1/2 and current was activated by a 20 msec voltage step to 0 mV.

[3] = Table V, estimated IC-50 from single point electrophysiology, cells clamped at V1/2
[4] = estimated IC-50, HEK cells expressing hSCN3A, class symbols or bounds
[5] = estimated IC-50, HEK cells expressing hSCN9A, class symbols or bounds

T1 sequence (Q15858 whole entry): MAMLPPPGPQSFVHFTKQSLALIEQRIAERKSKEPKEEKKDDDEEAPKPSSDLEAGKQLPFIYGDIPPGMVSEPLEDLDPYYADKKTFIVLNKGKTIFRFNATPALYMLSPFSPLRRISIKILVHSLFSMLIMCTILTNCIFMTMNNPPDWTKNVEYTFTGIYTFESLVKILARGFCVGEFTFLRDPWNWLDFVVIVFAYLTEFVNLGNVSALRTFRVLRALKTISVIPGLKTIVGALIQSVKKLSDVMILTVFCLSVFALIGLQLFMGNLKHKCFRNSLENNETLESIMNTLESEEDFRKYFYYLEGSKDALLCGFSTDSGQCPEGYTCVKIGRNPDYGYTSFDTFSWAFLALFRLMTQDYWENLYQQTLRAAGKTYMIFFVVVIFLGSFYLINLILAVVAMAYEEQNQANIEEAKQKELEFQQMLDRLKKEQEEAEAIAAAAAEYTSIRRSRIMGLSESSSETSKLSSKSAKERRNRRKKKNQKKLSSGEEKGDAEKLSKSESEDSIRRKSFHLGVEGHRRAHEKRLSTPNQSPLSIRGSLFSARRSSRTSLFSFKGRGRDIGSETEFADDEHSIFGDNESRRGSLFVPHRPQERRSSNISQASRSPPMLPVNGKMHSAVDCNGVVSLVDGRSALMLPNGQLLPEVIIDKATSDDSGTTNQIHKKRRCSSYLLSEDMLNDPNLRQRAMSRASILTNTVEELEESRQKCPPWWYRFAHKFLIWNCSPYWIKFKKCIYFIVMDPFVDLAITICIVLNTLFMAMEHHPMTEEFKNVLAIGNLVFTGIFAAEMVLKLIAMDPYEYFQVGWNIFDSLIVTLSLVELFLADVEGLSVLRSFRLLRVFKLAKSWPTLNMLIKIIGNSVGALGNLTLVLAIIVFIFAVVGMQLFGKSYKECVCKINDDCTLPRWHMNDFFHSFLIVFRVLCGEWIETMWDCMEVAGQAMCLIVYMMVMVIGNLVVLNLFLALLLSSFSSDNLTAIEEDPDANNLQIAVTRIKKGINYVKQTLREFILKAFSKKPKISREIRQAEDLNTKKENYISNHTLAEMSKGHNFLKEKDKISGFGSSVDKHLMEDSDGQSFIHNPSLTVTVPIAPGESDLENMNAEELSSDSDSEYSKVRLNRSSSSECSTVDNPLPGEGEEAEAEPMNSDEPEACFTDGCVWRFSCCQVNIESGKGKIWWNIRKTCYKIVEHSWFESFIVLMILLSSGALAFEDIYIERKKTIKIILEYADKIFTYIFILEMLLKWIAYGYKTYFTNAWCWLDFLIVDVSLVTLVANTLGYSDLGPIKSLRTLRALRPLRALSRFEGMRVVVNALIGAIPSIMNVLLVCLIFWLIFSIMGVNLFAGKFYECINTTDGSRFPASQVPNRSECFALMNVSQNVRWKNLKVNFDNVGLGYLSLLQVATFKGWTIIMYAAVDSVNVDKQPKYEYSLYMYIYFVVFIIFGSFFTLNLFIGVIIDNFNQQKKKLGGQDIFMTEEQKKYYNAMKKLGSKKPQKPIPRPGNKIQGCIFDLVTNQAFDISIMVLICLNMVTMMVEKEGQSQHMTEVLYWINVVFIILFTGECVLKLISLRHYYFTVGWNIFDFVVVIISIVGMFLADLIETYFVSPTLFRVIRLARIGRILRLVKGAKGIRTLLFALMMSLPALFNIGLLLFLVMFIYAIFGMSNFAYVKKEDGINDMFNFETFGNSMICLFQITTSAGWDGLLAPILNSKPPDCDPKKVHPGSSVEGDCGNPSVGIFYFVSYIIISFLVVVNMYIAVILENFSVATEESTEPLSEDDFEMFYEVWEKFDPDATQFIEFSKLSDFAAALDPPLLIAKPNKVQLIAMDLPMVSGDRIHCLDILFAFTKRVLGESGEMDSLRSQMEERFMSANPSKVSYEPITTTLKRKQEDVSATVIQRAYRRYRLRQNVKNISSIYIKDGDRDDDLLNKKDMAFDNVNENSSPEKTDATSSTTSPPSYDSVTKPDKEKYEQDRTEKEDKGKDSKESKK
T2 sequence (Q9NY46 whole entry): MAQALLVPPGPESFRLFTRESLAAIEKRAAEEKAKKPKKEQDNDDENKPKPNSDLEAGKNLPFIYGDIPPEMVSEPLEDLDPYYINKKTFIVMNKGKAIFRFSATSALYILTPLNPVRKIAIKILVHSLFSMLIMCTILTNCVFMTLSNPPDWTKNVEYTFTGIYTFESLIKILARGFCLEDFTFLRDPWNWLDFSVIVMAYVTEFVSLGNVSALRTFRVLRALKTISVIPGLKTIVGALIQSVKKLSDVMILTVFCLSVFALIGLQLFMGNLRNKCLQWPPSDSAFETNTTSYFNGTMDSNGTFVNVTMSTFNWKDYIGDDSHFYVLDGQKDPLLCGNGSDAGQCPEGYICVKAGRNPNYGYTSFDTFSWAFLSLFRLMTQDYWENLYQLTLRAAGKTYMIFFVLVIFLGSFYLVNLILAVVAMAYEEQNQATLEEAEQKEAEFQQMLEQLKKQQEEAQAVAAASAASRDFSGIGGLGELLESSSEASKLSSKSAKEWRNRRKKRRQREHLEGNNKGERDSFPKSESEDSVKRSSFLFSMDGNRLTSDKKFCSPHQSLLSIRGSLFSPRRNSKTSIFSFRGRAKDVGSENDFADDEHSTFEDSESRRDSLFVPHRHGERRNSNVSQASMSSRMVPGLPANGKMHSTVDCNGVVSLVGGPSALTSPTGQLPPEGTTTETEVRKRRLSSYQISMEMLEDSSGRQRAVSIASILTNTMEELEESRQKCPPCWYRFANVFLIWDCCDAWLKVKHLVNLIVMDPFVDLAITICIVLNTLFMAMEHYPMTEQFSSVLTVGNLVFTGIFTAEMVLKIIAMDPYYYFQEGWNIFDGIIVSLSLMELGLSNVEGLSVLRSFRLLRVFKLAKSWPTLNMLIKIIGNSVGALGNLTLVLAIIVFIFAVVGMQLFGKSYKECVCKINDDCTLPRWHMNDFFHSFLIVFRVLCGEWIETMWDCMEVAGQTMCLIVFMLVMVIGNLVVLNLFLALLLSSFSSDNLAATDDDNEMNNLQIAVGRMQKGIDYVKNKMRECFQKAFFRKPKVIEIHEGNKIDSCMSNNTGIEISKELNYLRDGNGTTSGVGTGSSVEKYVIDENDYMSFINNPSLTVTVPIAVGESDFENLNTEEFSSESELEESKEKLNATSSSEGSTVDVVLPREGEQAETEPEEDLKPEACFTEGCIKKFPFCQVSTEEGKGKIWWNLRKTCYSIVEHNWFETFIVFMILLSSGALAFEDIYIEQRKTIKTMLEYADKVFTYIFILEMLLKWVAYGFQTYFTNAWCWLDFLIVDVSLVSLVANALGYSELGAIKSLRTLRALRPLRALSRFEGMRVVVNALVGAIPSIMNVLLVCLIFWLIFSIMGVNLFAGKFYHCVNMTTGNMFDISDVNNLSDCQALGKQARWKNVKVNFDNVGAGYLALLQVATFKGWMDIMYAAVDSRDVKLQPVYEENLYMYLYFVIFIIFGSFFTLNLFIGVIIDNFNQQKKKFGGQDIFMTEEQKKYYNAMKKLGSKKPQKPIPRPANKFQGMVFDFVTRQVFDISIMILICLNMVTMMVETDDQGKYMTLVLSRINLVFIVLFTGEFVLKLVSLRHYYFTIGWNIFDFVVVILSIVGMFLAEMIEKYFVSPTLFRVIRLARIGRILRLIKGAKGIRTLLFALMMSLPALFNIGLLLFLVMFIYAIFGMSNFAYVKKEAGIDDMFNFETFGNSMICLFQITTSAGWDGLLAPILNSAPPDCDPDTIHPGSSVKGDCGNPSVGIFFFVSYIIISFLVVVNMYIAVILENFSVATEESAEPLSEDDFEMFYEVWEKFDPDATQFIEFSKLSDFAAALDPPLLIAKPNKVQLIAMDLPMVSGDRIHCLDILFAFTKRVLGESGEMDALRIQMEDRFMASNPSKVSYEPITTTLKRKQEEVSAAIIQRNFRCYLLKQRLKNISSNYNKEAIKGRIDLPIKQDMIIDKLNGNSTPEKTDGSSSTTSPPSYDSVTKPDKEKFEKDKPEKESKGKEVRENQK

Compound: O=S(=O)(Nc1nccs1)c1ccc(Nc2nc(Cc3ccc(Cl)cc3)cs2)cc1F [Compound 1, 4-[4-(4-Chloro-benzyl)-thiazol-2-ylamino]-2-fluoro-N-thiazol-2-yl-benzenesulfonamide]
pIC50 [1, 3]: > 5.70
pIC50 [2, 3]: > 5.70

Compound: O=S(=O)(Nc1nccs1)c1ccc(Nc2nc(C(c3ccccc3)c3ccccc3)cs2)cc1 [Compound 2, 4-(4-Benzhydrylthiazol-2-ylamino)-N-(thiazol-2-yl)benzenesulfonamide]
pIC50 [1, 3]: 5.00 to 5.70
pIC50 [2, 3]: > 5.70

Compound: COc1ccc(Cc2csc(Nc3ccc(S(=O)(=O)Nc4nccs4)c(F)c3)n2)cc1 [Compound 3, 2-Fluoro-4-[4-(4-methoxy-benzyl)-thiazol-2-ylamino]-N-thiazol-2-yl-benzenesulfonamide]
pIC50 [1, 3]: < 5.00
pIC50 [2, 3]: > 5.70

Compound: CS(=O)(=O)c1ccc(Cc2csc(Nc3ccc(S(=O)(=O)Nc4nccs4)c(F)c3)n2)cc1 [Compound 4, 2-Fluoro-4-[4-(4-methanesulfonyl-benzyl)-thiazol-2-ylamino]-N-thiazol-2-yl-benzenesulfonamide]
pIC50 [1, 3]: 5.00 to 5.70
pIC50 [2, 3]: > 5.70

Compound: N#Cc1ccc(Cc2csc(Nc3ccc(S(=O)(=O)Nc4nccs4)c(F)c3)n2)cc1 [Compound 5, 4-[4-(4-Cyano-benzyl)-thiazol-2-ylamino]-2-fluoro-N-thiazol-2-yl-benzenesulfonamide]
pIC50 [1, 3]: 5.00 to 5.70
pIC50 [2, 3]: > 5.70

Compound: CN(c1ccc(S(=O)(=O)Nc2nccs2)c(F)c1)c1nc(Cc2ccc(Cl)cc2)cs1 [Compound 6, 4-[4-(4-Chloro-benzyl)-thiazol-2-yl]-methyl-amino-2-fluoro-N-thiazol-2-yl-benzenesulfonamide]
pIC50 [1, 3]: 5.00 to 5.70
pIC50 [2, 3]: 5.00 to 5.70

Compound: CC(C)(C)c1csc(Nc2ccc(S(=O)(=O)Nc3nccs3)c(F)c2)n1 [Compound 7, 4-(4-Tert-butyl-thiazol-2-ylamino)-2-fluoro-N-thiazol-2-yl-benzenesulfonamide]
pIC50 [1, 3]: 5.00 to 5.70
pIC50 [2, 3]: > 5.70

Compound: Cc1nc(Nc2ccc(S(=O)(=O)Nc3nccs3)cc2)sc1C(C)(C)C [Compound 8, 4-(5-Tert-butyl-4-methylthiazol-2-ylamino)-N-(thiazol-2-yl)benzenesulfonamide]
pIC50 [1, 3]: > 5.70
pIC50 [2, 3]: > 5.70

Compound: O=S(=O)(Nc1nccs1)c1ccc(Nc2nc(CCCCl)cs2)cc1 [Compound 59, 4-(4-(3-chloropropyl)thiazol-2-ylamino)-N-(thiazol-2-yl)benzenesulfonamide]
pIC50 [2, 4]: > 5.70

Compound: COc1ccnc(Nc2ccc(S(=O)(=O)Nc3cc(C)on3)cc2)n1 [Compound 86, 4-(4-methoxypyrimidin-2-ylamino)-N-(5-methylisoxazol-3-yl)benzenesulfonamide]
pIC50 [2, 4]: < 6.00

Compound: Cc1cc(NS(=O)(=O)c2ccc(Nc3nccc(OCc4ccc(C(F)(F)F)cc4)n3)cc2)no1 [Compound 87, N-(5-methylisoxazol-3-yl)-4-(4-(4-(trifluoromethyl)benzyloxy)pyrimidin-2-ylamino)benzenesulfonamide]
pIC50 [2, 4]: < 6.00

Compound: Cc1cc(NS(=O)(=O)c2ccc(Nc3ccnc(OCc4ccc(C(F)(F)F)cc4)n3)cc2)no1 [Compound 88, N-(5-methylisoxazol-3-yl)-4-(2-(4-(trifluoromethyl)benzyloxy)pyrimidin-4-ylamino)benzenesulfonamide]
pIC50 [2, 4]: 5.00 to 5.70

The remaining lines, values ahead:

pIC50 [1, 5]: < 5.52
Compound: Cc1cccc(NS(=O)(=O)c2ccc(Nc3ccn(Cc4ccc(Cl)cc4)n3)cc2F)n1 [Compound 259, 4-(1-(4-chlorobenzyl)-1H-pyrazol-3-ylamino)-2-fluoro-N-(6-methylpyridin-2-yl)benzenesulfonamide]

pIC50 [1, 5]: < 6.00
Compound: O=S(=O)(Nc1cccnn1)c1ccc(Nc2ccn(Cc3ccc(Cl)cc3)n2)cc1F [Compound 260, 4-(1-(4-chlorobenzyl)-1H-pyrazol-3-ylamino)-2-fluoro-N-(pyridazin-3-yl)benzenesulfonamide]

pIC50 [1, 5]: < 6.00
Compound: Cc1nnc(NS(=O)(=O)c2ccc(Nc3ccn(Cc4ccc(Cl)cc4)n3)cc2F)o1 [Compound 261, 4-(1-(4-chlorobenzyl)-1H-pyrazol-3-ylamino)-2-fluoro-N-(5-methyl-1,3,4-oxadiazol-2-yl)benzenesulfonamide]

pIC50 [1, 5]: 5.00 to 5.70
Compound: O=S(=O)(Nc1ccncn1)c1ccc(Nc2ccn(Cc3ccc(Cl)cc3)n2)cc1F [Compound 262, 4-(1-(4-chlorobenzyl)-1H-pyrazol-3-ylamino)-2-fluoro-N-(pyrimidin-4-yl)benzenesulfonamide]

pIC50 [1, 5]: > 5.70
Compound: O=S(=O)(Nc1nncs1)c1ccc(Nc2ccn(Cc3ccc(Cl)cc3)n2)cc1C(F)(F)F [Compound 265, 4-(1-(4-chlorobenzyl)-1H-pyrazol-3-ylamino)-N-(1,3,4-thiadiazol-2-yl)-2-(trifluoromethyl)benzenesulfonamide]

pIC50 [1, 5]: > 5.70
Compound: Cc1cc(Nc2cc(F)c(S(=O)(=O)Nc3nccs3)cc2F)n(-c2ccccc2)n1 [Compound 267, 2,5-difluoro-4-(3-methyl-1-phenyl-1H-pyrazol-5-ylamino)-N-(thiazol-2-yl)benzenesulfonamide]

pIC50 [1, 5]: 5.00 to 5.70
Compound: Cc1cc(Nc2ccc(S(=O)(=O)Nc3nccs3)c(C)c2)n(-c2ccccc2)n1 [Compound 268, 2-methyl-4-(3-methyl-1-phenyl-1H-pyrazol-5-ylamino)-N-(thiazol-2-yl)benzenesulfonamide]

pIC50 [1, 5]: < 6.00
Compound: Cc1cc(Nc2ccc(S(=O)(=O)Nc3nccs3)c(OC(F)(F)F)c2)n(-c2ccccc2)n1 [Compound 270, 4-(3-methyl-1-phenyl-1H-pyrazol-5-ylamino)-N-(thiazol-2-yl)-2-(trifluoromethoxy)benzenesulfonamide]

pIC50 [1, 5]: 5.00 to 5.70
Compound: Cc1cc(Nc2ccn(Cc3ccc(Cl)cc3)n2)ccc1S(=O)(=O)Nc1nccs1 [Compound 271, 4-(1-(4-chlorobenzyl)-1H-pyrazol-3-ylamino)-2-methyl-N-(thiazol-2-yl)benzenesulfonamide]

pIC50 [1, 5]: < 6.00
Compound: Cc1cc(Nc2ccc(S(=O)(=O)Nc3nccs3)c(C(F)(F)F)c2)n(-c2ccccc2)n1 [Compound 272, 4-(3-methyl-1-phenyl-1H-pyrazol-5-ylamino)-N-(thiazol-2-yl)-2-(trifluoromethyl)benzenesulfonamide]

pIC50 [1, 5]: < 6.00
Compound: N#Cc1cc(S(=O)(=O)Nc2ncns2)ccc1Nc1nnc(-c2ccccc2)c(O)n1 [Compound 273, 3-cyano-4-(5-hydroxy-6-phenyl-1,2,4-triazin-3-ylamino)-N-(1,2,4-thiadiazol-5-yl)benzenesulfonamide]

pIC50 [1, 5]: > 5.70
Compound: O=S(=O)(Nc1nccs1)c1ccc2c(cnn2Cc2ccc(OC(F)(F)F)cc2)c1 [Compound 274, N-(thiazol-2-yl)-1-(4-(trifluoromethoxy)benzyl)-1H-indazole-5-sulfonamide]

pIC50 [1, 5]: 5.00 to 5.70
Compound: O=S(=O)(Nc1nccs1)c1ccc2nn(Cc3ccc(OC(F)(F)F)cc3)cc2c1 [Compound 275, N-(thiazol-2-yl)-2-(4-(trifluoromethoxy)benzyl)-2H-indazole-5-sulfonamide]

pIC50 [1, 5]: > 5.70
Compound: O=S(=O)(Nc1nccs1)c1ccc2c(cnn2CCCCc2ccccc2)c1 [Compound 278, 1-(4-phenylbutyl)-N-(thiazol-2-yl)-1H-indazole-5-sulfonamide]

pIC50 [1, 5]: 5.00 to 5.70
Compound: O=S(=O)(Nc1nccs1)c1ccc2nn(CCCCc3ccccc3)cc2c1 [Compound 279, 2-(4-phenylbutyl)-N-(thiazol-2-yl)-2H-indazole-5-sulfonamide]
